Data as given in patent US20080051379A1, “Compositions and Methods for the Treatment of Peripheral B-Cell Neoplasms” (Trustees of Boston University, priority 2004, published 2008).

Assays:
[1] = tested on: GRE luciferase constructs transiently transfected into B-CLL cells; experiment: GRE luciferase transactivation in B-CLL cells; format: cell-based, human; conditions: 1 mM Rp-8Br-cAMPS; 8 B-CLL samples; p<0.02
Method: B-CLL cells (FIG. 3A) or CCRF-CEM cells (FIG. 3B) were transiently transfected with a luciferase construct in which expression is regulated by GRE elements, followed by culture in 10 μM rolipram (R), 40 μM forskolin (Fsk), 1 μM hydrocortisone (HC), 1 mM Rp-8Br-cAMPS (Rp-8Br) or combinations of these agents. 12 hours after addition of the drugs, the relative luminescence of the samples was determined. The data shown are the mean of 8 experiments for B-CLL and two experiments for CCRF-CEM cells. The single asterisk denote a significant difference by paired student's t test between HC alone and either R/HC (FIG. 3A) or F/HC (FIG. 3B) (p<0.02). The double asterisk denotes a significant difference between Rp-8Br-cAMPS/HC and HC alone (p<0.02).
An MMTV GRE luciferase construct, originally created by Dr. R. Evans, was a gift from Dr. Remco Spanjaard (Dept. of Otolaryngology, Boston Medical Center)^29. 100 million B CLL cells in 200 μl of PBS were added to 500 μl of Nucleofector Solution D containing 30 μg of endotoxin-free (Qiagen) MMTV luciferase constructs. 100 μl was used per transfection using a Nucleofector electroporation instrument (Amaxa Biosystems, Koeln, Germany) using program U16. […] Up to six such aliquots of transfected cells were diluted in media and pooled, prior to distribution of 8 million cells/well in 48 well plates. Two hours after transfection, drugs, cytokines or vehicle alone were added to the transfected cells. 14 hours after transfection, samples were processed using a luciferase assay kit (Promega). Triplicate samples were analyzed with an MGM Instruments Optocomp I luminometer (Hamden, Conn.). Analysis of cell viability (trypan blue exclusion) and total protein (Pierce) verified that equivalent numbers of viable B-CLL cells were analyzed. 100 million CCRF-CEM cells were similarly transfected, cultured and analyzed except that Nucleofector program O17 was utilized. […] Data were analyzed using a two-sided paired t test for means.

[2] = tested on: B-CLL cells; experiment: Hoechst 33342 apoptosis assay, B-CLL cells; format: cell-based, human; conditions: 1 mM Rp-8Br-cAMPS + 1 μM hydrocortisone, 48 hours; six B-CLL patients
[3] = tested on: B-CLL cells; experiment: Hoechst 33342 apoptosis assay, B-CLL cells; format: cell-based, human; conditions: for augmentation of hydrocortisone-induced apoptosis: 10 μM PDE inhibitor + 1 μM hydrocortisone; for apoptosis by Hoechst 33342 analysis: 48 hrs culture, Roli 10 μM, HC 1 μM
Method: FIGS. 1A-D show the effects of the cyclic nucleotide phosphodiesterase inhibitors rolipram, RO20-1724 and cilostamide on hydrocortisone and dexamethasone-induced apoptosis in B-CLL. In FIG. 1A, leukemic cells from 11 B-CLL patients were assessed for apoptosis by […] analysis after 48 hrs culture in media alone (No treatment), 10 μM rolipram (Roli), 1 μM hydrocortisone (HC) or a combination of the two drugs (Roli+HC). In FIGS. 1B and 1C, leukemic cells from five patients with B-CLL were cultured in media alone or with a dose titration of hydrocortisone (1B: solid line) or dexamethasone (1C: solid line), followed by assessment for apoptosis by Hoechst 33342 FACS analysis at 48 hours. Using the same experimental conditions, the effect of addition of 10 μM rolipram (thick dashed line) to the glucocorticoids was also assessed. In FIG. 1D, the apoptotic effects of the PDE4 inhibitor RO20-1724 (RO20) (10 μM) or the PDE3 inhibitor cilostamide (Cilost) (10 μM) were assessed on B-CLL cells when combined with 1 μM hydrocortisone. Data represent the mean±SEM of triplicate samples.
Blood samples were obtained by IRB-approved consent from flow cytometry-confirmed B-CLL patients that were either untreated or for whom at least one month had elapsed since chemotherapy. Patients with active infections or other serious medical conditions were not included in this study.
CCRF-CEM cells were obtained from ATCC^27. Leukemic or normal mononuclear cells were obtained by centrifugation over Histopaque 1077 (Sigma Chemical Company, St. Louis, Mo.). For purification of T cells, whole mononuclear cells from normal subjects were incubated with magnetic beads coated with appropriate antibodies, then positively purified using a magnet (Miltenyi). Cells were cultured in RPMI 1640 media (Biowhittaker, Walkersville, Md.) supplemented with 10% fetal calf serum, 50 μMol/L 2-mercaptoethanol, 2 mMol/L L-glutamine, 10 mM Hepes pH 7.4, […] (Sigma Chemical Company, St. Louis, Mo.). For isolation of glucocorticoid resistant clones, parental CCRF-CEM cells were treated with 1 μM dexamethasone for 10 days, and surviving cells diluted to ≦one cell/well in a 96-well flat-bottom tissue culture plate, grown for three weeks in media supplemented with 20% fetal calf serum and 1% insulin-transferrin-selenium (GIBCO), and then transferred to regular growth medium. […] For isolation of glucocorticoid-sensitive clones, the same procedure was used, except that treatment with dexamethasone was omitted. A glucocorticoid-sensitive subclone (CEM-S2) was inhibited in its survival by dexamethasone with an IC50=0.007 μM.
Hoechst 33342 and DiOC6(3) apoptosis assays were performed as previously described^22,28. For CCRF-CEM cell survival assays, cells were plated at a density of 3×10^4/well in 96-well flat-bottom plates in the presence of test reagents or vehicle in 0.1 mL media. Following incubation for 72 hrs, 20 μl of a 20:1 MTS (2 mg/mL)/PMS (0.92 mg/ml) solution was added to each well, and the plates incubated for 2 hrs at 37°. The absorbance (O.D.) of the formazan product was determined at 492 nm using a plate reader (Titertek Multiscan Plus, Labsystems). Percent cell viability was calculated as follows: (O.D. control sample−O.D. blank)/(O.D. test sample−O.D. blank)×100. All assays were performed in triplicate.

[4] = tested on: glucocorticoid-sensitive subclone (CEM-S2); experiment: MTS cell survival assay, CEM-S2; format: cell-based, human; conditions: 72 hours
Method: (§1) In FIG. 5A, the polyclonal parental cell line (CCRF-CEM), the single cell-derived glucocorticoid-resistant subclone (CEM-R8) and the single cell-derived glucocorticoid-sensitive subclone (CEM-S2) were cultured for 72 hours in the presence of vehicle (ETOH) or dexamethasone at the concentrations indicated and cell viability was assessed by the MTS assay as described in Methods. In FIG. 5B, the glucocorticoid-resistant subclone (CEM-R8) and the glucocorticoid-sensitive subclone (CEM-S2) were cultured for 72 hours in the presence of hydrocortisone (HC) (10 μM HC for the CEM-R8 cells and 1 μM HC for the CEM-S2 cells), 10 μM forskolin (Fsk), 10 μM rolipram (Rol), or combinations of these agents as indicated, and cell viability was assessed by the MTS assay as described in Methods. FIG. 5C: The glucocorticoid-resistant subclone (CEM-R8) and the glucocorticoid-sensitive subclone (CEM-S2) were cultured for 72 hours in the presence of varying amounts of dibutyryl cAMP (db-cAMP) in the absence (−HC) or presence (+HC) of 1 μM hydrocortisone as indicated, and cell viability was assessed by the MTS assay as described in Methods. The data shown were normalized to the vehicle control. Results represent the mean±SD of triplicate determinations.
(§2) CCRF-CEM cells were obtained from ATCC^27. Leukemic or normal mononuclear cells were obtained by centrifugation over Histopaque 1077 (Sigma Chemical Company, St. Louis, Mo.). For purification of T cells, whole mononuclear cells from normal subjects were incubated with magnetic beads coated with appropriate antibodies, then positively purified using a magnet (Miltenyi). […]
(§3) Hoechst 33342 and DiOC6(3) apoptosis assays were performed as previously described^22,28. […] The absorbance (O.D.) of the formazan product was determined at 492 nm using a plate reader (Titertek Multiscan Plus, Labsystems). Percent cell viability was calculated as follows: (O.D. control sample−O.D. blank)/(O.D. test sample−O.D. blank)×100. […]

[5] = tested on: glucocorticoid-resistant subclone (CEM-R8); experiment: MTS cell survival assay, CEM-R8; format: cell-based, human; conditions: dexamethasone-resistant CCRF-CEM cells; dbcAMP dose response, 72 hours
Method: as §1, with “The data shown were normalized to the vehicle control. Results represent the mean±SD of triplicate determinations.” left out
(§4) Hoechst 33342 and DiOC6(3) apoptosis assays were performed as previously described^22,28. […] The absorbance (O.D.) of the formazan product was determined at 492 nm using a plate reader (Titertek Multiscan Plus, Labsystems). […]

[6] = target: PDE1 enzymes; conditions: cited from earlier work
[7] = tested on: PDE4; conditions: cited from earlier work
[8] = tested on: CCRF-CEM cells; experiment: MTS cell survival assay, CCRF-CEM cells; format: cell-based, human; conditions: 72 hours
Method: as §1, with “The data shown were normalized to the vehicle control. Results represent the mean±SD of triplicate determinations.” left out
as §4

[9] = tested on: CD3+ CD4+ Sezary cells; experiment: Hoechst 33342 apoptosis assay, Sezary cells; format: cell-based, human; conditions: 10 μM rolipram or 1 μM hydrocortisone; one patient
Method: Magnetic bead purified peripheral blood T cells or leukemic cells from patients with B-CLL or Sezary syndrome were cultured in media alone or with a dose titration of hydrocortisone (solid line), followed by assessment for apoptosis by Hoechst 33342 FACS analysis at 48 hours. Using the same experimental conditions, the effect of addition of 10 μM rolipram (thick dashed line) or 10 μM rolipram and 40 μM forskolin (dotted line) was also assessed. The SEM of triplicate samples is shown; where not visible, the SEM was less than 1.0%.
as §2, §3

What does the source list for `Nc1ncnc2c1nc(Br)n2C1OC2COP(O)(=S)OC2C1O` (centres unmarked) [Rp-8Br-cAMPS, (Rp)-8-Br-cAMPS]?
reduction of hydrocortisone-induced transactivation [1]: 83%; inhibition of hydrocortisone-induced apoptosis [2]: 86±14%

With `CN(C(=O)CCCOc1ccc2[nH]c(=O)ccc2c1)C1CCCCC1` [cilostamide] as the compound, how does the “augmentation of hydrocortisone-induced apoptosis” value ([3]; five B-CLL patients) read?
Its value is “nor augmented hydrocortisone-induced apoptosis”.

And the “induction of apoptosis by itself” value ([3]; 10 μM, five B-CLL patients)?
The value was “neither induced apoptosis by itself”.

With `C[C@@H]1C[C@H]2[C@@H]3CCC4=CC(=O)C=C[C@]4(C)[C@@]3(F)[C@@H](O)C[C@]2(C)[C@@]1(O)C(=O)CO` [dexamethasone] as the compound, how does the IC50 ([4]; Homo sapiens, CEM-S2 subclone, read-out: IC50, inhibition of survival) read?
Its IC50 is 0.007 µM.

Which “apoptotic effect combined with 1 μM hydrocortisone” value [5] does the source give for `CCCC(=O)Nc1ncnc2c1ncn2[C@@H]1O[C@@H]2COP(=O)(O)O[C@H]2[C@H]1OC(=O)CCC` [dbcAMP, dibutyryl cAMP] here?
The value was “marked synergy”.

And the “apoptotic effect combined with 1 μM hydrocortisone” value ([4]; dexamethasone-sensitive CCRF-CEM cells, dbcAMP dose response)?
Its value is “marked synergy”.

With `CCOC(=O)C1=C[C@]2(CC)CCCN3CCc4c(n1c1ccccc41)[C@@H]32` [vinpocetine] as the compound, how does the IC50 [6] read?
Its IC50 is 21 µM.

Which IC50 [7] does the source give for `CCCCOc1cc(CC2CNC(=O)N2)ccc1OC` (centres unmarked) [RO20-1724, 4-(3-Butoxy-4-methoxybenzyl)-2-imidazolidinone] here?
The IC50 was 2 µM.

And the “augmentation of hydrocortisone-induced apoptosis” value ([3]; five B-CLL patients)?
Its value is “augmented hydrocortisone-induced apoptosis”.

With `C=C[C@@]1(C)CC(=O)[C@@H]2[C@@]3(C)CCCC(C)(C)[C@@H]3[C@H](O)[C@H](OC(C)=O)[C@@]2(C)O1` [1,9 dideoxyforskolin] as the compound, how does the “augmentation of glucocorticoid sensitivity” value [8] read?
Its value is “failed to augment glucocorticoid sensitivity”.

For `C[C@]12CCC(=O)C=C1CC[C@@H]1[C@@H]2[C@@H](O)C[C@@]2(C)[C@H]1CC[C@]2(O)C(=O)CO` [hydrocortisone], which “apoptosis by Hoechst 33342 analysis” value ([3]; B-CLL patient #1, No Rx 10) is on record?
The value was 19%.

What about the “apoptosis by Hoechst 33342 analysis” value ([3]; B-CLL patient #2, No Rx 11) of the same compound?
Its value is 16%.

And the “apoptosis by Hoechst 33342 analysis” value ([3]; B-CLL patient #3, No Rx 13)?
Its value is 41%.

What about the “apoptosis by Hoechst 33342 analysis” value ([3]; B-CLL patient #4, No Rx 23) of the same compound?
The value was 42%.

And the “apoptosis by Hoechst 33342 analysis” value ([3]; B-CLL patient #5, No Rx 25)?
The value was 43%.

What about the “apoptosis by Hoechst 33342 analysis” value ([3]; B-CLL patient #6, No Rx 27) of the same compound?
Its value is 33%.

What about the “apoptosis by Hoechst 33342 analysis” value ([3]; B-CLL patient #7, No Rx 31) of the same compound?
Its value is 47%.

And the “apoptosis by Hoechst 33342 analysis” value ([3]; B-CLL patient #8, No Rx 33)?
The value was 60%.

And the “apoptosis by Hoechst 33342 analysis” value ([3]; B-CLL patient #9, No Rx 35)?
The value was 71%.

What about the “apoptosis by Hoechst 33342 analysis” value ([3]; B-CLL patient #10, No Rx 44) of the same compound?
The value was 75%.

What about the “apoptosis by Hoechst 33342 analysis” value ([3]; B-CLL patient #11, No Rx 61) of the same compound?
The value was 73%.

What about the “apoptotic effect used separately on Sezary leukemic cells” value [9] of the same compound?
The value was “little effect”.
